Measured values as given in US20230348564A1, “ANTI-CANCER PROTEINS” (UNICHEM LABORATORIES LTD, priority 2020, published 2023).

Tests used:
PANC-1 = assay: Cell cycle analysis (PI stain); assay type: cell-based, Human; details: 24 h
Experimental: The cell lines were maintained in DMEM+10% FBS (heat inactivated) at 37° C. with 5% CO2, and 95% humidity. Antibiotics Penicillin (100 U/mL) and Streptomycin (100 μg/mL) were added to the medium.
The stock solution of recombinant lectin having the amino acid sequence of SEQ ID NO. […] Doxorubicin was used as positive control and stock solution was prepared in DMSO.
Cells were counted using hemocytometer and plated in culture plates at density of 0.5×10^6 cells/well in DMEM+10% FBS in 6-well plates. Cells were incubated overnight to allow the cell recovery and exponential growth. Following overnight incubation, cells were sera starved in DMEM+1% FBS for 4 h. […] Untreated cells were included as Control group for test item. Cells treated with Doxorubicin were included as Positive Control group. DMSO treated cells were included as control group for Doxorubicin. After treatment, cells were incubated for a time period of 24 h. Following incubation, the pro-apoptotic effect by cell cycle was determined as follows: Cell cycle reagent contains PI stain, which stains DNA of cells in different phases of cell cycle; Sub(G0/G1), G1, S, G2 and M. Cells in Sub(G0/G1) phase correspond to apoptotic cells.
Cells were gently harvested into pre-labeled centrifuge tubes and centrifuged at 450 g for 5 min, RT (low brake). The supernatants were removed carefully (not to touch the pellet) and discarded. 1 mL of 1×PBS was added to the pellet and resuspended gently to make homogenous suspension. Cells were centrifuged at 450 g for 5 min, RT (low brake) (washing step). The supernatant was carefully removed leaving behind approx 100 μL of PBS. Cells were resuspended gently yet thoroughly in residual PBS. Ice-cold 70% ethanol (300 μLI) was added drop-wise into cells in each tube while vortexing at low speed (fixation step). Cells were stored at 4° C. for 24 h prior to staining.
Ethanol fixed cells were centrifuged at 450 g for 5 min, RT (low brake). The supernatant was carefully removed (not to touch the pellet) and discarded. (The pellet might not be visible but makes a thin film on surface of tube). 1 mL of 1×PBS was added into pellet and resuspended gently. Cells were incubated for 1 min at RT. Cells were centrifuged at 450 g for 5 min, RT (low brake) (washing step). The supernatant was removed carefully leaving behind approx 20 μL-50 μL of PBS. 200 μL of Cell Cycle reagent was added into each tube.
Cells were resuspended gently, mixed and were incubated for 30 min, RT, Dark. The stained samples were transferred into 96-well plates and acquired on flow cytometer (Guava technologies). Percentage of cells in Sub (G0/G1) phase were determined. Fold increase in apoptotic cells (treated with Test Items) was determined as compared to Control (untreated cells).

[1] = system: VEGF release in MDA-MB-231 cells; assay: VEGF secretion in cancer cells (Human VEGF ELISA); assay type: cell-based; details: 24 h
Experimental: (§1) The cell lines were maintained in DMEM+10% […] (heat inactivated) at 37° C. with 5% CO2, and 95% humidity. Cells were counted and plated in 6-well plates for 24 h at a density of 0.5×10^6 cells/well. The cells were incubated overnight under growth conditions as described above so as to allow cell recovery and exponential growth. Cells were treated with each test item at different concentrations for 24h in serum free media. Doxorubicin was used as positive control. Secreted levels of VEGF were determined in supernatants after 24 hours using Human VEGF ELISA kit (R&D systems) as per manufacturer's protocol. Change in VEGF levels corresponding to each treatment was calculated using the following formula: […]

[2] = system: VEGF release in PANC-1 cells; assay: VEGF secretion in cancer cells (Human VEGF ELISA); assay type: cell-based; details: 24 h
Experimental: as §1

Glioma (C6) = assay: cytotoxicity in Brain Tumor Cell lines by MTT assay; assay type: cell-based, Rat; details: 0.1 Mm-100 μM, 72 h
Experimental: The SEQ ID NO. […] Untreated cells were used as control. […] Cells were incubated for 3 h at 37° C.

Contactin-1 = assay: biomarker levels in IOMM-Lee by multiplex analysis; assay type: cell-based, Human
From the text: (§2) Effect of SEQ ID No 2 on the expression of following 7 biomarkers were estimated in Human Meningioma cell line (IOMM-Lee) using multiplex analysis: TNF-alpha, VEGF, VEGFR2, HGF, HGFR/c-MET, PDGF-BB, and Contactin-1. Levels of another marker, Notch-1 were also estimated by ELISA in the same cell line. These 8 biomarkers play very crucial role in the pathogenesis and progression of Brain Tumor. […] Supernatants were collected and the levels of these 8 markers were investigated.

HGFR/c-MET = assay: biomarker levels in IOMM-Lee by multiplex analysis; assay type: cell-based, Human
From the text: as §2

HGF = assay: biomarker levels in IOMM-Lee by multiplex analysis; assay type: cell-based, Human
From the text: as §2

PDGF-BB = assay: biomarker levels in IOMM-Lee by multiplex analysis; assay type: cell-based, Human
From the text: as §2

TNF-α = assay: biomarker levels in IOMM-Lee by multiplex analysis; assay type: cell-based, Human
From the text: as §2

VEGFR2 = assay: biomarker levels in IOMM-Lee by multiplex analysis; assay type: cell-based, Human
From the text: as §2

VEGF = assay: biomarker levels in IOMM-Lee by multiplex analysis; assay type: cell-based, Human
From the text: as §2

Notch-1 = assay: biomarker levels in IOMM-Lee by ELISA; assay type: cell-based, Human; details: 1 μM
From the text: as §2

Meningioma (IOMM-Lee) = assay: cytotoxicity in Brain Tumor Cell lines by MTT assay; details: 0.1 Mm-100 μM, 72 h
Astrocytoma (U87MG) = assay: as above; details: 0.1 Mm-100 μM, 72 h

SMILES: COc1cccc2c1C(=O)c1c(O)c3c(c(O)c1C2=O)C[C@@](O)(C(=O)CO)C[C@@H]3O[C@H]1C[C@H](N)[C@H](O)[C@H](C)O1 [Doxorubicin, reference compound]
- % Population of cells, Apoptotic Sub(G0/G1) (PANC-1; 10 μM): 14.74%
- % Population of cells, G0/G1 (PANC-1; 10 μM): 15.84%
- % Population of cells, G2/M (PANC-1; 10 μM): 27.44%
- % Population of cells, S (PANC-1; 10 μM): 18.45%
- % Population of cells, Apoptotic Sub(G0/G1) (PANC-1; 100 μM): 89.13%
- % Population of cells, G0/G1 (PANC-1; 100 μM): 9.65%
- % Population of cells, G2/M (PANC-1; 100 μM): 0.15%
- % Population of cells, S (PANC-1; 100 μM): 0.59%
- Average absorbance at 450 nM ([1]; 10 μM): 0.176
- Percentage decrease in VEGF levels ([1]; 10 μM): 89.2%
- VEGF level ([1]; 10 μM): 49.9 pg/mL
- Average absorbance at 450 nM ([1]; 100 μM): 0.145
- Percentage decrease in VEGF levels ([1]; 100 μM): 93.7%
- VEGF level ([1]; 100 μM): 29.0 pg/mL
- Average absorbance at 450 nM ([2]; 10 μM): 0.506
- Percentage decrease in VEGF levels ([2]; 10 μM): 73.6%
- VEGF level ([2]; 10 μM): 269.7 pg/mL
- Average absorbance at 450 nM ([2]; 100 μM): 0.483
- Percentage decrease in VEGF levels ([2]; 100 μM): 75.1%
- VEGF level ([2]; 100 μM): 254.6 pg/mL
- % of cytotoxicity (Glioma (C6)): 57.8%-86.3%
- Percentage inhibition on levels of Contactin-1 (Contactin-1; 1 μM): 50%
- Percentage inhibition on levels of Contactin-1 (Contactin-1; 10 μM): 23.3%
- Percentage inhibition on levels of HGFR/c-MET (HGFR/c-MET; 1 μM): 45.5%
- Percentage inhibition on levels of HGFR/c-MET (HGFR/c-MET; 10 μM): 55.2%
- Percentage inhibition on levels of HGF (HGF; 1 μM): 45.3%
- Percentage inhibition on levels of HGF (HGF; 10 μM): 84%
- Percentage inhibition on levels of PDGF-BB (PDGF-BB; 1 μM): 12%
- Percentage inhibition on levels of PDGF-BB (PDGF-BB; 10 μM): 100%
- Percentage inhibition on levels of TNF-α (TNF-α; 1 μM): 67.8%
- Percentage inhibition on levels of TNF-α (TNF-α; 10 μM): 42.3%
- Percentage inhibition on levels of VEGFR2 (VEGFR2; 1 μM): 38.2%
- Percentage inhibition on levels of VEGFR2 (VEGFR2; 10 μM): 50.1%
- Percentage inhibition on levels of VEGF (VEGF; 1 μM): 53%
- Percentage inhibition on levels of VEGF (VEGF; 10 μM): 93.4%
- Percentage inhibition on levels of Notch-1 (Notch-1): 8%
- % of cytotoxicity (Meningioma (IOMM-Lee)): 46.6%-54.5%
- % of cytotoxicity (Astrocytoma (U87MG)): 46.6%-72.4%
